Reference: ChEMBL document CHEMBL4808176, “Optimization of Truncated Glucagon Peptides to Achieve Selective, High Potency, Full Antagonists” (J Med Chem, 2021)
pIC50: −log10 of the molar value. Values belong to the compound of their own block, whether it stands above or below them. Activity calls are given as the source filed them. The calls are words filed in the database; no cut-off is given here. Peptide text beside a SMILES is read from it.

Key:
Glucagon receptor [1] = target: T1, Glucagon receptor (Homo sapiens, UniProt P47871); assay: Antagonist activity at human GCGR expressed in HEK293 cells assessed as inhibition of glucogon-induced cAMP production by schild plot analysis; assay type: functional, cell-based; settings: dose 0.1-1.6 µM
T1 sequence (P47871 whole entry): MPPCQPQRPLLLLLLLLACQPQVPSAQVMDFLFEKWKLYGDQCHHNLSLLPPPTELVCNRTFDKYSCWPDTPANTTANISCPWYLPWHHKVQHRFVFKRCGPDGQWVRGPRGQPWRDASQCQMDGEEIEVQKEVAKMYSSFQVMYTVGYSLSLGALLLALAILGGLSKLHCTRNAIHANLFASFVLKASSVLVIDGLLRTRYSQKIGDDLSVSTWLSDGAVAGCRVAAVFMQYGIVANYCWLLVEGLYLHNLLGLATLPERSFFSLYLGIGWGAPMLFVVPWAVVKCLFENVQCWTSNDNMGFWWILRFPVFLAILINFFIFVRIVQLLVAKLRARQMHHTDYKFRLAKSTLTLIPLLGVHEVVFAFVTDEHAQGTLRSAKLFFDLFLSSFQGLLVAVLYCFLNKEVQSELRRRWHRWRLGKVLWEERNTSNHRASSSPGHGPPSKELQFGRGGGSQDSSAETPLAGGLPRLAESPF

Glucagon receptor [2] = target: T1, Glucagon receptor; assay: Antagonist activity at human GCGR expressed in HEK293 cells assessed as inhibition of glucogon-induced cAMP production; assay type: functional, cell-based
Glucagon receptor [3] = target: T1, Glucagon receptor; assay: Partial antagonist activity at human GCGR expressed in HEK293 cells assessed as inhibition of glucogon-induced cAMP production; assay type: functional, cell-based; settings: filed as antagonist
[4] = AUC in C57BL/6 mouse at 1500 nmol/kg, sc measured upto 240 mins by LC-MS analysis; assay type: ADME, organism-based; set-up: route subcutaneous, dose 1500 nmol/kg, time <=240; settings: in vivo
[5] = target: T2, Glucagon-like peptide 1 receptor (Mus musculus, UniProt O35659); assay: Antagonist activity at mouse GLP1R expressed in CHO-K1 cells assessed as inhibition of GLP1-induced cAMP production; assay type: functional, cell-based
T2 sequence (O35659 whole entry): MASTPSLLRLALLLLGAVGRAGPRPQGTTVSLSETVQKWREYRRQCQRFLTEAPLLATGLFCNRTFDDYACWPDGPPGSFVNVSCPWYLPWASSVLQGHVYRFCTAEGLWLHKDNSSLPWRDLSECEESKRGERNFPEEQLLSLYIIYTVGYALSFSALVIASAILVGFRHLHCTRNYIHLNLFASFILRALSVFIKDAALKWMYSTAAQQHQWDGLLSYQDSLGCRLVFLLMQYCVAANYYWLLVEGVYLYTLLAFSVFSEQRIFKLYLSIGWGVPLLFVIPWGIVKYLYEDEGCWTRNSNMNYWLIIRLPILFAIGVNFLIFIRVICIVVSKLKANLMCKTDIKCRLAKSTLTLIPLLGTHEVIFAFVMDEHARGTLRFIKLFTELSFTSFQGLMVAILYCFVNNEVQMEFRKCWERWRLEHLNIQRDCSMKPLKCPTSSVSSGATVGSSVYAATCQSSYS

Glucagon receptor [6] = target: Glucagon receptor (Mus musculus, UniProt Q61606); assay: Antagonist activity at mouse GCGR expressed in CHO-K1 cells assessed as inhibition of glucogon-induced cAMP production; assay type: functional, cell-based
Glucagon receptor (Mus musculus, UniProt Q61606), sequence (Q61606 whole entry): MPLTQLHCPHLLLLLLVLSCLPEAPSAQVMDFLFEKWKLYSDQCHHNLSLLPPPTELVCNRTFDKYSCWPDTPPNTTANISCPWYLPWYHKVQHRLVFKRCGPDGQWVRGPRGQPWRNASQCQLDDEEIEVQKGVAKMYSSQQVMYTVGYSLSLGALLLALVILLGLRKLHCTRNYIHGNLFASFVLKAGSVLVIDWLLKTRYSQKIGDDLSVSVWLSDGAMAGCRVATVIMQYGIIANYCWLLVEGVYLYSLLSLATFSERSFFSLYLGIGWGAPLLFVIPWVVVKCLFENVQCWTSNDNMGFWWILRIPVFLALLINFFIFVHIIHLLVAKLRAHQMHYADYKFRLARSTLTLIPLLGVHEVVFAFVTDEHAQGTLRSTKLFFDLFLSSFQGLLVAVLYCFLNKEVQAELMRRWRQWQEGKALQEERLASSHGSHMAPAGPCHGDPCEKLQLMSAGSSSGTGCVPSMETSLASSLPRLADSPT

[7] = target: T3, Glucagon-like peptide 1 receptor (Mus musculus) (UniProt O35659); assay: Antagonist activity at mouse GLP1R expressed in CHO-K1 cells assessed as inhibition of GLP1-induced cAMP production relative to control; assay type: functional, cell-based; settings: concentration not given here
T3 sequence (whole entry): T2 sequence (O35659 whole entry)

[8] = Half life in C57BL/6 mouse at 1500 nmol/kg, sc measured upto 240 mins by LC-MS analysis; assay type: ADME, organism-based; settings: in vivo
[9] = Toxicity in C57BL/6 mouse assessed as adverse local and systemic responses at 1500 nmol/kg, sc; settings: in vivo
[10] = target: Glucagon receptor (Mus musculus) (UniProt Q61606); assay: Antagonist activity at mouse GCGR expressed in CHO-K1 cells assessed as inhibition of glucogon-induced cAMP production relative to control; assay type: functional, cell-based; settings: filed as antagonist, concentration not given here
Glucagon receptor (Mus musculus), sequence (Q61606 whole entry): as above

[11] = target: T4, Gastric inhibitory polypeptide receptor (Homo sapiens, UniProt P48546); assay: Antagonist activity at human GIPR expressed in HEK293 cells assessed as inhibition of GIP-induced cAMP production; assay type: functional, cell-based
T4 sequence (P48546 whole entry): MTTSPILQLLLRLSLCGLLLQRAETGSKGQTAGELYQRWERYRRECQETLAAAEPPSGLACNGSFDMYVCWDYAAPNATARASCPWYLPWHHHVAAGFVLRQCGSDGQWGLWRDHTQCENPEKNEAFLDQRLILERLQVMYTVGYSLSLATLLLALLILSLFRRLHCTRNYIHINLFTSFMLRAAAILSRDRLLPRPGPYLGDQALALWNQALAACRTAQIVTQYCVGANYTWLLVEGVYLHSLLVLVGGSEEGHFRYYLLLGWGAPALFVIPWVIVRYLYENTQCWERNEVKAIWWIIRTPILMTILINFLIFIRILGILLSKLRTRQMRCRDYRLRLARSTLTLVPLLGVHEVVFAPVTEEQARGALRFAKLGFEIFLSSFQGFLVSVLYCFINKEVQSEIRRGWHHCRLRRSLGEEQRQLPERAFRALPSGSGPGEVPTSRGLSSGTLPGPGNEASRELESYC

Mus musculus = assay: Inhibition of IUB288-induced glucose elevation in C57BL/6 mouse at 1500 nmol/kg, sc pretreated for 15 mins followed by IUB288 stimulation and measured upto 120 mins; assay type: functional, organism-based; settings: time 135.0 min
[12] = target: T5, Gastric inhibitory polypeptide receptor (Mus musculus) (UniProt Q0P543); assay: Antagonist activity at mouse GIPR expressed in CHO-K1 cells assessed as inhibition of GIP-induced cAMP production relative to control; assay type: cell-based; settings: concentration not given here
T5 sequence (whole entry): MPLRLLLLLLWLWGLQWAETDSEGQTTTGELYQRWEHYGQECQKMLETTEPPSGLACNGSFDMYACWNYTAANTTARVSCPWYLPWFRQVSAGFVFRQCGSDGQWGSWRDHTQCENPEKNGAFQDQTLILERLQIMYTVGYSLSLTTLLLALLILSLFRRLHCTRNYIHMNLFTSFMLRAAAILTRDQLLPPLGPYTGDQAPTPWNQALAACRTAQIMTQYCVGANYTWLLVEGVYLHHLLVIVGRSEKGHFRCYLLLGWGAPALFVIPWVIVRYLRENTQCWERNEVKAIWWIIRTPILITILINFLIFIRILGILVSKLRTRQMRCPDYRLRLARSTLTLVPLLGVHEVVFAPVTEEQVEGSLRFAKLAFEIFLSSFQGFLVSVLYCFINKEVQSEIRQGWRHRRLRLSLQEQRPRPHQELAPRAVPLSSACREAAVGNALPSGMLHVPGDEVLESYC

[13] = Cmax in C57BL/6 mouse at 1500 nmol/kg, sc measured upto 240 mins by LC-MS analysis; assay type: ADME, organism-based; set-up: route subcutaneous, dose 1500 nmol/kg, time <=240; settings: in vivo
[14] = target: T6, Gastric inhibitory polypeptide receptor (Homo sapiens) (UniProt P48546); assay: Antagonist activity at human GIPR expressed in HEK293 cells assessed as inhibition of GIP-induced cAMP production relative to control; assay type: functional, cell-based; settings: concentration not given here
T6 sequence (whole entry): T4 sequence (P48546 whole entry)

[15] = Chemical stability of compound in PBS buffer incubated for 5 to 7 days by LC-MS analysis; assay type: physicochemical; settings: time 5-7 day
[16] = target: T7, Gastric inhibitory polypeptide receptor (Mus musculus, UniProt Q0P543); assay: Antagonist activity at mouse GIPR expressed in CHO-K1 cells assessed as inhibition of GIP-induced cAMP production; assay type: cell-based
T7 sequence (Q0P543 whole entry): T5 sequence (whole entry)

[17] = target: Glucagon-like peptide 1 receptor (Homo sapiens, UniProt P43220); assay: Antagonist activity at human GLP-1R expressed in HEK293 cells assessed as inhibition of GLP1-induced cAMP production; assay type: functional, cell-based
Glucagon-like peptide 1 receptor (Homo sapiens, UniProt P43220), sequence (P43220 whole entry): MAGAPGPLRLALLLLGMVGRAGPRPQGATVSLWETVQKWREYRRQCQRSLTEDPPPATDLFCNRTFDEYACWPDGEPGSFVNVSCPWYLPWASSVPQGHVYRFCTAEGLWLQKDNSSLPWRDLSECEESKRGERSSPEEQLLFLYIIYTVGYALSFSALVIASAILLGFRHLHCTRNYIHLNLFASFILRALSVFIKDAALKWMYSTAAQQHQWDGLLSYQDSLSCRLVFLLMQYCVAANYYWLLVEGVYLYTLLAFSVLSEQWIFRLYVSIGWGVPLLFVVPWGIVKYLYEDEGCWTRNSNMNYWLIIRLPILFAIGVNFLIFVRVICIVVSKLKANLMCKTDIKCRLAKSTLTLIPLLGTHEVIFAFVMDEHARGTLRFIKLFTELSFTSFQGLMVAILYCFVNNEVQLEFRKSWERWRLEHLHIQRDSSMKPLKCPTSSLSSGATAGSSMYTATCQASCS

[18] = Aqueous solubility of the compound at pH 8 by LC-MS analysis; assay type: physicochemical; settings: buffer
Glucagon receptor [19] = target: T1, Glucagon receptor; assay: Antagonist activity at human GCGR expressed in HEK293 cells assessed as inhibition of glucogon-induced cAMP production relative to control; assay type: functional, cell-based; settings: filed as antagonist, concentration not given here

Activity (Glucagon receptor [1]; filed as antagonist): Dose-Dependent Effect | pIC50 (Glucagon receptor [2]): 7.40
Compound: CSCC[C@H](NC(=O)[C@H](CC(C)C)NC(=O)[C@H](Cc1c[nH]c2ccccc12)NC(=O)[C@H](CCC(N)=O)NC(=O)[C@@H](NC(=O)[C@H](Cc1ccccc1)NC(=O)[C@H](CC(=O)O)NC(=O)[C@H](CCC(N)=O)NC(=O)[C@H](C)NC(=O)[C@H](CCCNC(=N)N)NC(=O)[C@H](CCCNC(=N)N)NC(=O)[C@H](CO)NC(=O)[C@H](CC(=O)O)NC(=O)[C@H](CC(C)C)NC(=O)[C@H](Cc1ccc(O)cc1)NC(=O)[C@H](CCCCN)NC(=O)[C@H](CO)NC(=O)[C@H](Cc1ccc(O)cc1)NC(=O)[C@H](CCC(=O)O)NC(=O)[C@H](CO)NC(=O)[C@@H](NC(=O)[C@@H](O)Cc1ccccc1)[C@@H](C)O)C(C)C)C(=O)N[C@@H](CC(N)=O)C(=O)N[C@H](C(N)=O)[C@@H](C)O (HELM PEPTIDE1{[O=C([C@@H](O)Cc1ccccc1)[*:2]].T.S.E.Y.S.K.Y.L.D.S.R.R.A.Q.D.F.V.Q.W.L.M.N.T.[am]}$$$$V2.0)

Activity (Glucagon receptor [1]; filed as antagonist): Dose-Dependent Effect | pIC50 (Glucagon receptor [2]): 7.10
Compound: H-FTSEYSKYLDSRRAQDFVQWLMNT-NH2

Activity (Glucagon receptor [1]): inactive | Activity (Glucagon receptor [3]): Active
Compound: H-LTFTSEYSKYLDSRRAQDFVQWLMNT-NH2

Compound: CSCC[C@H](NC(=O)[C@H](CC(C)C)NC(=O)[C@H](Cc1c[nH]c2ccccc12)NC(=O)[C@H](CCC(N)=O)NC(=O)[C@@H](NC(=O)[C@H](Cc1ccccc1)NC(=O)[C@H](CC(=O)O)NC(=O)[C@H](CCC(N)=O)NC(=O)[C@H](C)NC(=O)[C@H](CCCNC(=N)N)NC(=O)[C@H](CCCNC(=N)N)NC(=O)[C@H](CO)NC(=O)[C@H](CC(=O)O)NC(=O)[C@H](CC(C)C)NC(=O)[C@H](Cc1ccc(O)cc1)NC(=O)[C@H](CCCCN)NC(=O)[C@H](CO)NC(=O)[C@H](Cc1ccc(O)cc1)NC(=O)[C@H](CC(=O)O)NC(=O)[C@H](CO)NC(=O)[C@@H](NC(=O)[C@@H](O)Cc1ccccc1)[C@@H](C)O)C(C)C)C(=O)N[C@@H](CC(=O)O)C(=O)N[C@H](C(N)=O)[C@@H](C)O
AUC at 4 h [4]: 209 nM·h | pIC50 [5]: < 6.00 | pIC50 (Glucagon receptor [6]): 7.64 | inhibition [7]: 1% | half-life [8]: 30.7 min | Activity [9]: Non-Toxic | inhibition [10]: 92% | pIC50 (Glucagon receptor [2]): 7.92 | pIC50 [11]: < 6.00 | inhibition (Mus musculus): Active | inhibition [12]: 10% | Cmax [13]: 0.261 µM | inhibition [14]: 20% | Stabilty [15]: Stable | pIC50 [16]: < 6.00 | pIC50 [17]: < 6.00 | solubility [18]: > 500 µM | inhibition (Glucagon receptor [19]): 99%
